{"source": "patent US20240175069A1", "about": "“BIOSYSTEM FOR PESTICIDE DETECTION” (priority 2022, published 2024)", "key": {"[1]": {"molecular_target": "T1, CYP2B11 (Canis lupus familiaris, UniProt P24460)", "T1 sequence (P24460 1-494)": "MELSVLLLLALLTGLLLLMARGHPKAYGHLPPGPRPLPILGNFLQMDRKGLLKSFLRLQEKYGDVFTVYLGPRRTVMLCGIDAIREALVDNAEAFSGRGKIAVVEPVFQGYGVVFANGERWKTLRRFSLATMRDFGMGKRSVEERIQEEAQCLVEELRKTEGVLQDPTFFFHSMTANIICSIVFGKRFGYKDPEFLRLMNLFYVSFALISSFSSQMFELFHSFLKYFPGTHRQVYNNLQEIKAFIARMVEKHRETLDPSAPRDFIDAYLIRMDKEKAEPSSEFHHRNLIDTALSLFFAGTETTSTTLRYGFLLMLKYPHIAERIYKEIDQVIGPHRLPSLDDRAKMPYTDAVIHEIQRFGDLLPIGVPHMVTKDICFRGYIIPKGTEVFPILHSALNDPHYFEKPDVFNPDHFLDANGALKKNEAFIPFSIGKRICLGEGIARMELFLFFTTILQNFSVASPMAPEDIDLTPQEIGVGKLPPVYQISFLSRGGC", "assay": "Pesticides screening using CYP2B11 inhibition assay (BOMCC fluorescence, Example 4)", "conditions": "400 μg/L pesticide; 5 pmol/mL CYP2B11; 3 μM BOMCC", "description": "This assay was performed in a 96-well plate by adding 50 μL of chemical standard of pesticides in duplicate, previously prepared in assay buffer with 5% acetonitrile. Enzyme mixture consisted of 5 pmol/mL CYP2B11 (Cypex Limited) in the assay buffer: 75 mM potassium phosphate supplemented with 5 mM MgCl2, pH=8.0, containing 333 mM Glucose-6-phosphate and 30 U/mL Glucose-6-phosphate dehydrogenase. After preparation, 50 μL of enzyme mixture were added to each plate and incubated for 10 minutes at 37° C. After incubation, 10 μL of a substrate mixture containing 30 μM NADP^+ and 3 μM BOMCC in the phosphate buffer was added to the wells. The plate was incubated for 60 minutes at 37° C., and the fluorescence was monitored using 410/460 nm as excitation and emission wavelengths, respectively. A blank sample containing buffer solution was measured in same conditions and used to calculate the inhibition of the enzyme activity that was associated with the presence of pesticides concentration."}, "[2]": {"molecular_target": "T2, CYP2B10 (Mus musculus, UniProt P12791)", "T2 sequence (P12791 1-491 isoform P12791-2 L55F/V178I/R251K/K253R/N280H/A281T/V298A/H308R/T321A/S349T/L376M/Q412H/S444N)": "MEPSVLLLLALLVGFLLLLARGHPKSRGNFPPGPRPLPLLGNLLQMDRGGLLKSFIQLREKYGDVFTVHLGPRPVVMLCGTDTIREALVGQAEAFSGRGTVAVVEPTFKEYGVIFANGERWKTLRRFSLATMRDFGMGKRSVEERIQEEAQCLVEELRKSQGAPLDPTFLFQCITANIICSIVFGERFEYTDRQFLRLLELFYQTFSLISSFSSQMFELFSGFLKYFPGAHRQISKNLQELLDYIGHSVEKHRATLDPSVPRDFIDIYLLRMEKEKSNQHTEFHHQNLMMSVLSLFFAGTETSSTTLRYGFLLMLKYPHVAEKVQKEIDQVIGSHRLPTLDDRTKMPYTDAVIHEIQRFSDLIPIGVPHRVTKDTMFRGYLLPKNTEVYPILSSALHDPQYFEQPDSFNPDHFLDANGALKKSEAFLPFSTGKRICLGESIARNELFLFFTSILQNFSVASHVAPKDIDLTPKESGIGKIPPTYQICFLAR", "assay": "Pesticides screening using CYP2B10 inhibition assay (MOBFC fluorescence, Example 1)", "type": "biochemical", "set-up": "purchased Cypex Limited; bacterial membranes, E. coli by own knowledge", "conditions": "15 pmol/mL CYP2B10, 10 μM MOBFC, 10% acetonitrile standard; for I (%) at 200 μg/L: 200 μg/L pesticide; for I (%) at 400 μg/L: 400 μg/L pesticide", "description": "An inhibition assay was performed using the enzyme CYP2B10 by contacting it to 200 μg/L and 400 μg/L of chlorpyrifos-ethyl, chlorpyrifos-methyl, prochloraz, diazinon and dicofol."}, "[3]": {"molecular_target": "T2, CYP2B10", "assay": "CYP2B10 assay on extracts of spiked mushrooms, validation (Example 7)", "conditions": "mushroom spiked at 0.01 mg/kg, extracted; 15 pmol/mL CYP2B10; 10 μM MOBFC; triplicates over seven days", "experimental": "The bioassay was performed in 500 μL tubes and in triplicate. 50 μL of extract was added to the tubes. Enzyme mixture was prepared following the protocols provided by the manufacturer (Cypex Limited) and consisted of 15 pmol/ml of CYP2B10 Bactosomes in the assay buffer: 75 mM potassium phosphate supplemented with 5 mM MgCl2, pH=8.0, containing 333 mM Glucose-6-phosphate and 30 U/mL Glucose-6-phosphate dehydrogenase. After the preparation, 50 μL of enzyme mixture were added to each tube. After reach room temperature 10 μL of substrate mixture (10 μM MOBFC and 30 μM NADP^+ diluted in potassium phosphate buffer 50 mM) was added to each tube. The tubes were incubated 60 minutes at 37° C. and when time passed, fluorescence signal was measured with a fluorometric reader, 370 nm and 520 nm were the excitation and emission wavelengths, respectively. A blank sample, buffer solution, was measured at the same time and the reduction of the signal, inhibition of enzyme activity, was calculated and associated with the presence of pesticide molecules.\nThe validation was carried out during seven days, comparing the signal obtained for triplicate samples of blank and doped mushroom."}, "[4]": {"molecular_target": "T2, CYP2B10", "assay": "CYP2B10 inhibition assay with MOBFC/MOFC reporter substrate mixes (Example 3)", "type": "biochemical", "set-up": "purchased Cypex Limited; bacterial membranes, E. coli by own knowledge", "conditions": "400 μg/L dicofol", "description": "The enzyme CYP2B10 was exposed to 400 μg/L of dicofol pesticide, and the inhibition percentage was registered when reporter substrate concentration and composition was changed."}, "[5]": {"molecular_target": "T1, CYP2B11", "assay": "Effect of dimethoate in CYP2B11 assay (BOMCC fluorescence, Example 2)", "type": "biochemical", "set-up": "purchased Cypex Limited", "conditions": "dog, CYP2B11 enzyme (Cypex Limited), pH 8, probe BOMCC (3 μM in substrate mixture); 2 mg/L dimethoate; 10 pmol/mL CYP2B11; 3 μM BOMCC", "excerpt": "Considering the inhibition percentage determined, it is possible to confirm that CYP2B11 enzyme is susceptible to be inhibited by dimethoate pesticide."}, "[6]": {"molecular_target": "T3, Human CYP2B6 (Homo sapiens, UniProt P20813)", "T3 construct": "purchased Thermofisher Scientific; host or cells: baculosomes (microsomes of baculovirus-infected insect cells, by own knowledge)", "T3 sequence (P20813 1-491)": "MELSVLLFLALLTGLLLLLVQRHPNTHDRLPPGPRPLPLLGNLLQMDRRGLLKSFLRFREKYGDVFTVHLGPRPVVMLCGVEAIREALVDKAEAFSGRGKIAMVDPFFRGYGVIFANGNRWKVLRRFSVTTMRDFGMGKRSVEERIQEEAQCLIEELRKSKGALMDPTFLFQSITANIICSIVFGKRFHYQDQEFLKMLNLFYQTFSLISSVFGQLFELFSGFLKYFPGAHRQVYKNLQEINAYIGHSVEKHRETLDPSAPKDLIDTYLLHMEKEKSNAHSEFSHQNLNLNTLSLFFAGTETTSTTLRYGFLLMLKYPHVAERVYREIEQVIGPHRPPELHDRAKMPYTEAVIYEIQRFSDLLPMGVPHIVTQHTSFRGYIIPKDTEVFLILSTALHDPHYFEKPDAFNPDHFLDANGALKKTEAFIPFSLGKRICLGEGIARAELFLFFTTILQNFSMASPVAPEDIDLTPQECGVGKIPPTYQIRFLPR", "assay": "Metrafenone inhibition assay on human CYP2B6 (Example 5)", "type": "biochemical", "conditions": "500 μg/L metrafenone; CYP2B6 2.5 pmol/mL; BOMCC 3 μM", "experimental": "(§1) This assay was performed in a 96-well plate by adding 50 μL of 500 μg/L of metrafenone chemical standard to wells in duplicate, previously prepared in assay buffer with 5% acetonitrile. CYP2B11 enzyme mixture consisted of 5 pmol/mL Dog CYP2B11 bactosomes (Cypex Limited) in the assay buffer: 75 mM potassium phosphate supplemented with 5 mM MgCl2, pH=8.0, containing 333 mM Glucose-6-phosphate and 30 U/mL Glucose-6-phosphate dehydrogenase. CYP2B6 enzyme mixture consisted of 2.5 pmol/ml of Vivid® Human CYP2B6 baculosomes (Thermofisher Scientific) in the assay buffer: 75 mM potassium phosphate, pH=8.0, containing 333 mM Glucose-6-phosphate and 30 U/mL Glucose-6-phosphate dehydrogenase.\n(§2) After preparation, 50 μL of each enzyme mixture were added to each plate and incubated for 10 minutes at 37° C. After incubation, 10 μL of a substrate mixture containing 30 μM NADP^+ and 3 μM BOMCC in the phosphate buffer was added to the wells. The plate was incubated for 60 minutes at 37° C., and the fluorescence was monitored using 410/460 nm as excitation and emission wavelengths, respectively. A blank sample containing buffer solution was measured in same conditions and used to calculate the inhibition percentage of the activity of the enzymes in presence of the pesticide metrafenone."}, "[7]": {"molecular_target": "T4, Dog CYP2B11 (Canis lupus familiaris, UniProt P24460)", "T4 construct": "purchased Cypex Limited; host or cells: bactosomes (bacterial membranes; E. coli by own knowledge)", "T4 sequence (P24460 1-494)": "T1 sequence (P24460 1-494)", "assay": "Metrafenone inhibition assay on CYP2B11 (Example 5)", "type": "biochemical", "conditions": "500 μg/L metrafenone; CYP2B11 5 pmol/mL; BOMCC 3 μM", "experimental": "as §1, §2"}}, "data": [{"smiles": "N#Cc1c(Cl)c(Cl)c(Cl)c(C#N)c1Cl", "note": "[Chlorothalonil]", "values": [{"measurement": "I(%)", "setting": "[1]", "result": 62.3, "unit": "%"}]}, {"smiles": "CCOP(=S)(OCC)Oc1nc(Cl)c(Cl)cc1Cl", "note": "[Chlorpyrifos-ethyl]", "values": [{"measurement": "I(%)", "setting": "[1]", "result": 94.2, "unit": "%"}, {"measurement": "I (%) at 200 μg/L", "setting": "[2]", "result": 26.8, "unit": "%"}, {"measurement": "I (%) at 400 μg/L", "setting": "[2]", "result": 46.8, "unit": "%"}]}, {"smiles": "COP(=S)(OC)Oc1nc(Cl)c(Cl)cc1Cl", "note": "[Chlorpyrifos-methyl]", "values": [{"measurement": "I(%)", "setting": "[1]", "result": 96.0, "unit": "%"}, {"measurement": "I (%) at 200 μg/L", "setting": "[2]", "result": 49.5, "unit": "%"}, {"measurement": "I (%) at 400 μg/L", "setting": "[2]", "result": 77.9, "unit": "%"}, {"measurement": "Average I (%)", "setting": "[3]", "result": 46.8, "unit": "%"}]}, {"smiles": "CC1(C)C(C=C(Cl)Cl)C1C(=O)OC(C#N)c1cccc(Oc2ccccc2)c1", "note": "(stereo not drawn) [Cypermethrin]", "values": [{"measurement": "I(%)", "setting": "[1]", "result": 17.5, "unit": "%"}]}, {"smiles": "Clc1ccc(C(c2ccc(Cl)cc2)C(Cl)(Cl)Cl)cc1", "note": "[DDT]", "values": [{"measurement": "I(%)", "setting": "[1]", "result": 70.7, "unit": "%"}]}, {"smiles": "CCOP(=S)(OCC)Oc1cc(C)nc(C(C)C)n1", "note": "[Diazinon]", "values": [{"measurement": "I(%)", "setting": "[1]", "result": 84.1, "unit": "%"}]}, {"smiles": "OC(c1ccc(Cl)cc1)(c1ccc(Cl)cc1)C(Cl)(Cl)Cl", "note": "[Dicofol]", "values": [{"measurement": "I(%)", "setting": "[1]", "result": 79.0, "unit": "%"}, {"measurement": "I (%) at 200 μg/L", "setting": "[2]", "result": 19.0, "unit": "%"}, {"measurement": "I (%) at 400 μg/L", "setting": "[2]", "result": 30.6, "unit": "%"}, {"measurement": "I(%)", "setting": "[4]; MOBFC 0.0 μM, MOFC 10.0 μM", "result": 72.9, "unit": "%"}, {"measurement": "I(%)", "setting": "[4]; MOBFC 2.0 μM, MOFC 8.0 μM", "result": 50.6, "unit": "%"}, {"measurement": "I(%)", "setting": "[4]; MOBFC 3.3 μM, MOFC 6.6 μM", "result": 37.4, "unit": "%"}, {"measurement": "I(%)", "setting": "[4]; MOBFC 5.0 μM, MOFC 5.0 μM", "result": 24.3, "unit": "%"}, {"measurement": "I(%)", "setting": "[4]; MOBFC 10.0 μM, MOFC 0.0 μM", "result": 16.8, "unit": "%"}]}, {"smiles": "CC(C)NC(=O)N1CC(=O)N(c2cc(Cl)cc(Cl)c2)C1=O", "note": "[Iprodione]", "values": [{"measurement": "I(%)", "setting": "[1]", "result": 15.9, "unit": "%"}]}, {"smiles": "CCCC(Cn1cncn1)c1ccc(Cl)cc1Cl", "note": "(stereo not drawn) [Penconazole]", "values": [{"measurement": "I(%)", "setting": "[1]", "result": 87.8, "unit": "%"}]}, {"smiles": "CCCN(CCOc1c(Cl)cc(Cl)cc1Cl)C(=O)n1ccnc1", "note": "[Prochloraz]", "values": [{"measurement": "I(%)", "setting": "[1]", "result": 94.6, "unit": "%"}, {"measurement": "I (%) at 200 μg/L", "setting": "[2]", "result": 60.3, "unit": "%"}, {"measurement": "I (%) at 400 μg/L", "setting": "[2]", "result": 72.0, "unit": "%"}, {"measurement": "Average I (%)", "setting": "[3]", "result": 54.2, "unit": "%"}]}, {"smiles": "CC12CC1(C)C(=O)N(c1cc(Cl)cc(Cl)c1)C2=O", "note": "(stereo not drawn) [Procymidone]", "values": [{"measurement": "I(%)", "setting": "[1]", "result": 24.5, "unit": "%"}]}, {"smiles": "Fc1ccc(Oc2ccnc3cc(Cl)cc(Cl)c23)cc1", "note": "[Quinoxyfen]", "values": [{"measurement": "I(%)", "setting": "[1]", "result": 18.1, "unit": "%"}]}, {"smiles": "CNC(=O)CSP(=S)(OC)OC", "note": "[dimethoate]", "values": [{"measurement": "inhibition at 60 min, 2 mg/L", "setting": "[5]", "result": 56.8, "unit": "%"}]}, {"smiles": "COc1cc(C)c(C(=O)c2c(OC)ccc(Br)c2C)c(OC)c1OC", "note": "[metrafenone]", "values": [{"measurement": "I(%)", "setting": "[6]", "result": 0.0, "unit": "%"}, {"measurement": "I(%)", "setting": "[7]", "result": 35.2, "unit": "%"}]}]}
